In the supplement of paper PMC10307832:

Tests used:
Assay in all cases: relative viability (nuclei count vs DMSO), 5 days (fraction); higher = more cells survive
[1] = compound: CC1CC(=O)N(C2=CN=C(N=C2N1C3CCCC3)NC4=C(C=C(C=C4)C(=O)NC5CCN(CC5)C)OC)C [NPK76-II-72-1] + CC(=O)c1c(C)c2cnc(Nc3ccc(N4CCNCC4)cn3)nc2n(C2CCCC2)c1=O [Palbociclib] (partner 0.5 µM)
Summary of the method: (§1)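 A single step with final 0.05% Triton X-100, 1% formaldehyde and 1 ug/ml Hoechst fixed the cells and stained nuclei 5 days after treatment. Lung cancer cell lines in 1536-well plates had been treated by pin tool the day after seeding with one drug alone or a fixed anchor-drug dose plus five library-drug doses (not always all listed) in √10 steps, and nuclei were counted on 4× images. Relative viability is the ratio of nuclei in treated wells to nuclei in vehicle wells, taken as the median of duplicate plates.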

[2] = compound: CC1CC(=O)N(C2=CN=C(N=C2N1C3CCCC3)NC4=C(C=C(C=C4)C(=O)NC5CCN(CC5)C)OC)C [NPK76-II-72-1] + CC1(C)CCC(c2ccc(Cl)cc2)=C(CN2CCN(c3ccc(C(=O)NS(=O)(=O)c4ccc(N[C@H](CCN5CCOCC5)CSc5ccccc5)c(S(=O)(=O)C(F)(F)F)c4)cc3)CC2)C1 [Navitoclax] (partner 0.5 µM)
Summary of the method: as §1

BI-2536 + Crizotinib = compound: CC[C@@H]1C(=O)N(C)c2cnc(Nc3ccc(C(=O)NC4CCN(C)CC4)cc3OC)nc2N1C1CCCC1 [BI-2536] + C[C@@H](Oc1cc(-c2cnn(C3CCNCC3)c2)cnc1N)c1c(Cl)ccc(F)c1Cl [Crizotinib] (partner 1 µM)
Summary of the method: as §1

BI-2536 + Linsitinib = compound: CC[C@@H]1C(=O)N(C)c2cnc(Nc3ccc(C(=O)NC4CCN(C)CC4)cc3OC)nc2N1C1CCCC1 [BI-2536] + C[C@]1(O)C[C@@H](c2nc(-c3ccc4ccc(-c5ccccc5)nc4c3)c3c(N)nccn32)C1 [Linsitinib] (partner 1 µM)
Summary of the method: as §1

| Cell Line | relative viability ([1]; first compound 0.01 µM) | relative viability ([1]; first compound 0.03162 µM) | relative viability ([1]; first compound 0.1 µM) | relative viability ([1]; first compound 0.3162 µM) | relative viability ([1]; first compound 1 µM) | relative viability ([2]; first compound 0.01 µM) | relative viability ([2]; first compound 0.03162 µM) | relative viability ([2]; first compound 0.1 µM) | relative viability ([2]; first compound 0.3162 µM) | relative viability ([2]; first compound 1 µM) | relative viability (BI-2536 + Crizotinib; first compound 0.01 µM) | relative viability (BI-2536 + Crizotinib; first compound 0.03162 µM) | relative viability (BI-2536 + Crizotinib; first compound 0.1 µM) | relative viability (BI-2536 + Crizotinib; first compound 0.3162 µM) | relative viability (BI-2536 + Crizotinib; first compound 1 µM) | relative viability (BI-2536 + Linsitinib; first compound 0.01 µM) | relative viability (BI-2536 + Linsitinib; first compound 0.03162 µM) | relative viability (BI-2536 + Linsitinib; first compound 0.1 µM) | relative viability (BI-2536 + Linsitinib; first compound 0.3162 µM) | relative viability (BI-2536 + Linsitinib; first compound 1 µM) |
| --- | --- | --- | --- | --- | --- | --- | --- | --- | --- | --- | --- | --- | --- | --- | --- | --- | --- | --- | --- | --- |
| LOU-NH91 | 0.538 | 0.52 | 0.496 | 0.52 | 0.528 | 0.635 | 0.66 | 0.666 | 0.517 | 0.833 | 0.697 | 0.671 | 0.719 | 0.325 | 0.307 | 0.968 | 0.925 | 1.04 | 0.691 | 0.289 |
| LU99A | 0.404 | 0.437 | 0.425 | 0.393 | 0.443 | 0.804 | 0.766 | 0.785 | 0.889 | 0.692 | 0.527 | 0.526 | 0.218 | 0.212 | 0.184 | 0.593 | 0.534 | 0.472 | 0.172 | 0.194 |
| LXF-289 | 0.594 | 0.58 | 0.562 | 0.577 | 0.633 | 0.877 | 0.964 | 0.954 | 0.88 | 0.941 | 0.822 | 0.693 | 0.456 | 0.0566 | 0.0678 | 0.988 | 0.892 | 0.845 | 0.069 | 0.0799 |
| NCI-H23 | 0.537 | 0.504 | 0.412 | 0.501 | 0.6 | 0.774 | 1.08 |  | 0.675 | 0.784 | 0.622 | 0.398 | 0.426 | 0.146 | 0.141 | 0.536 | 0.542 | 0.644 | 0.191 | 0.138 |
| NCI-H322M | 0.485 | 0.492 | 0.48 | 0.482 | 0.47 | 1.19 | 1.2 | 1.18 | 1.24 | 1.32 | 0.992 | 0.721 | 0.92 | 0.346 | 0.308 | 0.921 | 0.835 | 1.04 | 0.668 | 0.339 |
| NCI-H441 | 0.232 | 0.26 | 0.251 | 0.205 | 0.254 | 0.634 | 0.946 | 0.671 | 0.533 | 0.73 | 0.503 | 0.393 | 0.218 | 0.154 | 0.133 | 0.521 | 0.575 | 0.321 | 0.126 | 0.133 |
| NCI-H460 | 0.157 | 0.105 | 0.225 | 0.121 | 0.219 | 1.17 | 1.45 | 1.19 | 1.18 | 1.23 | 0.966 | 0.842 | 0.0283 | 0.0109 | 0.0112 | 0.844 | 0.755 | 0.28 | 0.0093 | 0.0128 |
| NCI-H520 | 0.235 | 0.24 | 0.267 | 0.26 | 0.247 | 0.927 | 1.05 | 1.01 | 1.04 | 1.03 | 0.764 | 0.323 | 0.202 | 0.184 | 0.117 | 0.984 | 0.852 | 0.792 | 0.153 | 0.171 |
